Patent US20210267978A1, “NANOPARTICLE FORMULATIONS OF IKE AND METHODS OF USE THEREOF” (The Trustees of Columbia University in the City of New York, priority 2018, published 2021)

How the values were obtained:
SUDHL6 cells = assay: qPCR analysis of gene expression in cell culture; assay type: cell-based
Description: To perform qPCR analysis in cell culture, DLBCL cells were treated with 0-10 μM IKE, Fer-1, or β-Me for the indicated times. RNA was extracted using the Qiashredder and Qiagen RNeasy Mini kits (Qiagen) according to the manufacture's protocol. 2 μg RNA from each sample was reversed transcribed to cDNA using a High Capacity cDNA Reverse Transcription Kit (Thermo Fisher Scientific, 4368814). Quantitative PCR reactions were performed using Power SYBR Green PCR Master Mix (Applied Biosystems) with triplicate measurement on ViiA 7 Real-Time PCR instrument (Thermo Fischer). HPRT1 was used as an internal reference. Differences in mRNA levels compared with HPRT1 were computed between vehicle and experimental groups using the ΔΔCt method. The primers used in the study were listed below.

[1] = tested on: SUDHL6 xenograft tumor tissue; assay: Reduced glutathione measurement in mouse tumor tissue after one IKE dose; assay type: in vivo, NCG mice; conditions: single dose IKE 50 mg/kg, starting at 4 hours
[2] = tested on: SUDHL6 subcutaneous xenografts; assay: IKE efficacy study, tumor volume; assay type: in vivo, NCG mice; conditions: starting from day 9 of treatment
Description: IKE was dissolved in 5% DMSO/95% HBSS at pH 4 to create a 4 mg/mL solution. 5% DMSO/95% HBSS at pH 4 was used as vehicle 1. IKE PEG-PLGA nanoparticles and unfunctionalized PEG-PLGA nanoparticles (without IKE loading) (vehicle 2) prepared with a NanoAssemblr were dialyzed with deionized water overnight, the water was changed at least twice. Dialyzed IKE-PEG-PLGA nanoparticles and unfunctional PEG-PLGA nanoparticles were concentrated by Amicon Ultra-15 Centrifugal Filter Units to create a solution with 80 mg/mL PEG-PLGA nanoparticles. All above solutions were sterilized by filter through a 0.2 μm syringe filter.
NCG mice, 6-weeks old, were injected with 10 million SUDHLO-6 cells subcutaneously. […] Tumor volume was measured daily with electronic caliper and calculated using the formula: 0.5×length×width^2. […] Tumor volume change was analyzed in Prism using one-way ANOVA. Tumor tissues were analyzed as described in the RT-qPCR, immunofluorescence, TBARS, and lipidomics sections below.
We investigated the efficacy of IKE in vivo in male NCG mice bearing SUDHL6 subcutaneous xenografts. […] During the experimental period, mouse weight and tumor volume were measured daily to determine IKE's antitumor effect and possible toxicity. Tumor growth was calculated as the fold change relative to original tumor volume on day 0 before the first dose (FIG. 4C). […]

## CC(C)Oc1ccc(C(=O)Cn2ccnc2)cc1-n1c(CN2CCN(C(=O)COc3ccc(Cl)cc3)CC2)nc2ccccc2c1=O [IKE, Imidazole ketone erastin]
SUDHL6 cells; DLBCL cells, IKE treatment (data not shown)
  GPX4, CBS and ACSL4 expression: not upregulated
SUDHL6 cells; SUDHL6 cells following IKE treatment
  SLC7A11, PTGS2 and CHAC1 expression: significantly increased
SUDHL6 cells; SUDHL-6 cells, 500 nM IKE
  SLC7A11 expression induced starting from (time post incubation): 3 h
  expression of lipid metabolism genes ACC1, ELOVL7, ATGL, sPLA2F, LPEAT1, LPCAT4, ALOX12, ALOX15: upregulated
  highest mRNA change (CHAC1): 33 fold
SUDHL6 cells; SUDHL-6 cells, 500 nM IKE, starting from 5 minutes
  increased PTGS2 expression: over 10 fold
SUDHL6 cells; SUDHL-6 cells, 500 nM IKE, starting from post 5 minutes
  increased CHAC1 expression: over 5 fold
[1]
  GSH depletion in tumor tissue: over 50%
[2]; 23 mg/kg i.p. once daily
  tumor growth (tumor volume fold change vs day 0): significant decrease in tumor growth
[2]; 40 mg/kg i.p. once daily
  tumor growth (tumor volume fold change vs day 0): significant decrease in tumor growth
